Assay results reported in patent US9624277B2, “Anticancer agent” (AMRITA THERAPEUTICS LIMITED, priority 2010, dated 2017).
No end group written: not given here.

What was measured:
[1] = tested on: UM-UC-3 bladder cancer cell line; experiment: MTT cytotoxicity assay, UM-UC-3 bladder carcinoma cell line; format: cell-based, human; settings: UM-UC-3 cells, 1.0 and 10 μM, 24 h
Text: ATCC: UM-UC-3: Human cell line with epithelial-like characteristics established from a high grade invasive urinary bladder carcinoma of a patient. This is a hypertriploid human cell line and IFN non responsive. This cell line is tumorigenic in nature.

U87 human glioblastoma = settings: U87 cells (brain cancer), 24 h, MTT; MPT-63 at 1, 5 and 10 μM
HepG2 liver cancer = settings: HepG2 cells (liver cancer), 24 h, MTT; MPT-63 at 1, 5 and 10 μM
MDA-MB-231 breast cancer = settings: MDA-MB-231 cells (breast cancer), 24 h, MTT; MPT-63 at 1, 5 and 10 μM
[2] = tested on: HCT 116 colorectal cancer cell line; format: cell-based, human; settings: HCT 116 cells, compared with MB30, MTT
Text: ATCC HCT 116: Human cell line with epithelial-like characteristics established from colorectal carcinoma from an adult patient. The cells are positive for keratin by immunoperoxidase staining. HCT 116 cells are positive for transforming growth factor beta 1 (TGF beta 1) and beta 2 (TGF beta 2) expression. This line has a mutation in codon 13 of the ras protooncogene, and can be used as a positive control for PCR assays of mutation in this codon.

[3] = tested on: SiHa cervix cancer cell line; settings: SiHa cells, compared with MB30, MTT
Description: (§1) The viability of the cells was estimated by using MTT assay on the basis of formazan formed, which was detected spectrophotometrically by optical density at 570 nm at 24 h, 48 h and 72 h [Bar-mean±S.E.].
(§2) MTT [3-(4, 5-dimethylthiazol-2-yl)-2,5-diphenyl tetrazolium bromide] assay was carried out for measurement of the cytotoxicity of different anticancer peptides. The water soluble tetrazolium salt, MTT [3-(4,5-dimethylthiazol-2-yl)-2,5-diphenyl tetrazolium bromide] is metabolized to the water insoluble formazan by intact mitochondrial dehydrogenases. The formazan is then solubilized by adding 2-propanol+40 mM HCl for 4 h incubation. […] The viability of the cells was estimated on the basis of formazan formed, which was detected spectrophotometrically by optical density at 570 nm at 24 h, 48 h and 72 h. At every time point such as 24 h, 48 h and 72 h, 1×10^4 cells were seeded without the peptide in triplicate in each plate for a given treatment of peptide. This was used as control cytotoxicity levels to calculate the percent cell cytotoxicity of every peptide treatment. […] All the experiments were carried out in triplicates and repeated three times.

[4] = tested on: CaSki cervix cancer cell line; settings: CaSki cells, compared with MB30, MTT
Description: as §1
All cell lines were grown under standard conditions in humidified 37° C. incubator in 5% CO2 as described earlier (Garg et al., 2009; Kanojia et al., 2010).
as §2

| Molecule | cytotoxicity levels (in words) [1] | cytotoxicity (in words) (U87 human glioblastoma) | cytotoxicity (in words) (HepG2 liver cancer) | cytotoxicity (in words) (MDA-MB-231 breast cancer) | cytotoxicity (in words) [2] | cytotoxicity (in words) [3] | cytotoxicity (in words) [4] |
| --- | --- | --- | --- | --- | --- | --- | --- |
| GQVWEATATVNAIRGSVTPAVSQFNARTAD [MB30] | higher cytotoxicity levels than the other peptide | better cytotoxicity in comparison to the full length protein MPT-63 | better cytotoxicity in comparison to the full length protein MPT-63 | better cytotoxicity in comparison to the full length protein MPT-63 |  |  |  |
| NHFTLKCPKTALTEPPTLAY [TG20] |  |  |  |  | less cytotoxicity | less cytotoxicity | less cytotoxicity |
| TAGIKLTVPIEKFPVTTQTFVVG [TG23] | higher cytotoxicity levels than the other peptide |  |  |  | less cytotoxicity | less cytotoxicity | less cytotoxicity |
| MPT-63 (protein, listed as Mycobacterium bovis) MKLTTMIKTAVAVVAMAAIATFAEPVALAAYPITGKLGSELTMTDTVGQVVLGWKVSDLKSSTAVIPGYPVAGQVWEATATVNAIRGSVTPAVSQFNARTADGINYRVLWQAAGPDTISGATIPQGEQSTGKIYFDVTGPSPTIVAMNNGMQDLLIWEP |  | shown cytotoxicity | shown cytotoxicity | shown cytotoxicity |  |  |  |
